≈ marks a conversion by molar mass, not a printed value.
What was measured:
physchem = conditions: aqueous with cosolvent or surfactant or cyclodextrin
Procedure: (§1) Different amounts of the substances were added to 1 ml samples of the microemulsion placed in glass vials. The samples were rotated for 48 hours to allow a complete wetting of the solid substance. The samples were than kept in a waterbath at 25° C. for at least one week before inspection. The samples were inspected for any solid substance or phase separation and the maximum solubility was defined as the range between the last sample in each series without any trace of solids or phase separation, and the first sample with remaining and undissolved substance or a phase separation.

[1] = Solubility of sparingly soluble substances in water, microemulsion and PEG 400 (50%)
Procedure: as §1

Structure (SMILES)	solubility (physchem) [µg/mL]	solubility ([1]; PEG 400 (50%) solution, aqueous with cosolvent or surfactant or cyclodextrin) [µg/mL]	Sol. in water ([1]; in water) [mg/L]	sol. in microemulsion 1a ([1]; microemulsion 1a, 25° C., at least one week, range between last clear and first undissolved sample) [mg/L]	sol. in microemulsion 1b ([1]; microemulsion 1b, 25° C., at least one week, range between last clear and first undissolved sample) [mg/L]	amount possible to administrate using the microemulsion compared to a 50% solution PEG 400 ([1]; microemulsion vs 50% solution PEG 400)
CCOC(=O)C1=C(C)NC(C)=C(C(=O)OC)C1c1cccc(Cl)c1Cl (stereo not drawn) [Felodipine, ethyl methyl 4-(2,3-dichlorophenyl)-1,4-dihydro-2,6-dimethyl-3,5-pyridinedicarboxylate]	700 (≈ 1820 µM)	–	–	–	–	–
CCOc1c(C)cc2c(c1C)[C@@]1(C)Cc3ccccc3[C@@]1(C)N2 (relative stereo) [The indeno indole, cis-4b,5,9b,10-tetrahydro-4b,7,9,9b-tetramethyl-8-ethoxy-indeno(1,2-b)indole]	–	200 (≈ 651 µM)	2.0	40000 to 50000	60000 to 75000	over 100 times

Reference: patent US6602511B2, “Microemulsions for use as vehicles for administration of active compounds” (AstraZeneca AB, priority 1995, dated 2003)
